These results are taken from publication PMC7894426, “Influence of verapamil on the pharmacokinetics of rotundic acid in rats and its potential mechanism” (Pharmaceutical Biology, 2021).

Where two headings read alike, the source gives them in different places.

One data set relates to MDCKII-Mock cells. Briefly: MTS cell-proliferation assay. It counts as cell-based, canine. Conditions: 25 µM RA.
The nature of data set [1]: In vivo pharmacokinetic study of oral rotundic acid with or without verapamil pre-treatment. Also on record: species or system Sprague–Dawley rats. The conditions noted are these: rats, RA 10 mg/kg oral; for AUC(0-inf) / CL/F / Cmax / Vd/F / half-life / AUC(0-t) / Tmax: male, Sprague-Dawley, rat, plasma, po, 10 mg/kg; for AUC(0-t): read-out: AUC0–24. The method, then:
Male Sprague–Dawley rats (180–220 g) were purchased from SiPeiFu (Beijing) Biotechnology Co., Ltd. (Beijing, China). Rats were housed in a breeding room at stable temperature (22 ± 3 °C), humidity (55 ± 10%), and under non-pathogenic conditions. All animals were placed under the above conditions and acclimatized to the facilities for one week, then fasted for 12 h with water ad libitum before the experiments. The protocols involving experimental animals were carried out by the guidelines of the Animal Ethical Committee of Tianjin Institute of Pharmaceutical Research (Tianjin, China).
To evaluate the influence of verapamil on the in vivo pharmacokinetics of RA, the male Sprague–Dawley rats were randomly divided into three groups (n = 6), including a control group and two pre-treatment groups. The pre-treatment groups received verapamil orally by gavage at a dose of 25 and 50 mg/kg (dissolved in 5% gum arabicin at a concentration of 5 and 10 mg/mL, respectively) separately for 15 min before the administration of RA at a dose of 10 mg/kg (dissolved in 5% gum arabicin at a concentration of 2 mg/mL). The dose of verapamil selected was equated to the human maximum recommended daily dose of 240–480 mg for a 60 kg person following allometric conversion (US Food and Drug Administration [2005]; Cao et al. [2007]). The control group received equal amounts of the vehicle (5% gum arabicin) before the oral administration of RA. Whole blood samples (200 µL) were collected from the orbital venous plexus at 0.0833, 0.25, 0.5, 1, 1.5, 2, 3, 4, 6, 8, 10 and 24 h after oral administration. All samples were transferred into heparinized tubes and then centrifuged for 5 min at 12,000 rpm and 4 °C immediately. The supernatants of separated plasma samples were harvested and stored at −20 °C until LC-MS/MS analysis.
RA was extracted from the sample using a simple protein precipitation method with a 3-fold volume of an organic solvent consisting of methanol-acetonitrile (1:2, v/v). Briefly, a 50 µL aliquot of plasma sample was thawed at room temperature and was then precipitated by 50 µL of methanol and 100 µL of acetonitrile containing IS (10 ng/mL). The sample was mixed uniformly for 1 min, and then centrifuged for 10 min at 12,000 rpm and 4 °C. Subsequently, 10 µL supernatants were injected into the LC-MS/MS system for analysis.
The separation and mass spectrometric analysis of the RA was achieved on a Waters ACQUITY^TM Ultra Performance LC system coupled with a Tandem Quadrupole (TQ) Detector equipped with an electrospray ionization (ESI) source. Chromatographic separation was performed at 40 °C with an ACQUITYUPLC BEH C8 column (1.7 µm, 2.1 × 50 mm, Waters Corp., USA). The mobile phase consisted of methanol-acetonitrile (50:50, v/v, mobile phase A), and 5 mM ammonium formate-methanol (90:10, v/v, mobile phase B). While the gradient elution procedure was employed for the separation of analytes at a flow rate of 0.3 mL/min. The optimized gradient elution program was as follows: 0 min 60% B, 3 min 10% B, 4 min 10% B, and 5 min 60% B. The injection volume was 10 µL at an autosampler temperature of 6 °C. The analytical run time for each sample was 5.0 min. The HPLC elution was injected into waste for the first 1.2 min, into the MS detector for the next 1 min, and back into waste for the remaining run time. RA and IS were monitored with the mass spectrometer by negative ESI source mode. The ionization source parameters were set as follows: 2.5 kV, 30 V, 120 °C, 350 °C, 50 L/h, and 650 L/h for capillary voltage, cone voltage, source temperature, desolvation temperature, cone gas, and desolvation gas, respectively. The optimal collision energy was operated at 30 V for RA and 20 V for IS. Argon was used as the collision gas. Samples were analyzed by multiple reaction monitoring (MRM) of the transitions of m/z 487.3 → 469.3 for RA and m/z 256.0 → 227.0 for IS, respectively. The dwell time was set at 0.2 s per transition. Data were acquired by MassLynx 4.1 software. […]

The mark [2] stands for this setting: pre-treatment of verapamil 25 mg/kg.
Where [3] appears, read: pre-treatment of verapamil 50 mg/kg.

For `C[C@@H]1CC[C@]2(C(=O)O)CC[C@]3(C)C(=CC[C@@H]4[C@@]5(C)CC[C@H](O)[C@@](C)(CO)[C@@H]5CC[C@]43C)[C@@H]2[C@]1(C)O` [RA, Rotundic acid], the “effect on cell proliferation (MTS)” value in the data set on MDCKII-Mock cells was “did not influence the cell proliferation”. In data set [1] (control (vehicle)), the total exposure AUC(0-inf) is 432 ± 64.2 ng·h/mL, the CL/F is 393 mL/min/kg, the peak concentration (Cmax) was determined as 108 ± 10.5 ng/mL and the Vd/F came out at 64.6 ± 22.6 L/kg. In addition, in data set [1] (control (vehicle)), the half-life was about 2 h, the AUC(0-t) was determined as 405 ± 68.2 ng·h/mL and the t1/2 amounted to 1.85 ± 0.390 h. For the same molecule, the Tmax in data set [1] (control (vehicle), read-out: Tmax) is 0.292 ± 0.228 h. Moreover, in data set [1] (setting [2]), the AUC(0-inf) was determined as 539 ± 53.6 ng·h/mL, the apparent clearance CL/F was 312 mL/min/kg, the Cmax was found to be 117 ± 14.9 ng/mL and the Vd/F came out at 66.7 ± 21.1 L/kg. Moreover, in data set [1] (setting [2]), the half-life was 2.44 ± 0.572 h and the AUC(0-t) amounted to 496 ± 63 ng·h/mL. Also, the Tmax in data set [1] (pre-treatment of verapamil 25 mg/kg, read-out: Tmax) is 0.625 ± 0.306 h. Besides, in data set [1] (setting [3]), the AUC(0-inf) turned out to be 836 ± 116 ng·h/mL, the apparent clearance (CL/F) is 203 mL/min/kg, the Cmax stood at 219 ± 36.8 ng/mL and the Vd/F was 41.3 ± 12.3 L/kg. In addition, in data set [1] (setting [3]), the half-life is 2.31 ± 0.404 h and the AUC(0-t) worked out at 782 ± 115 ng·h/mL. In data set [1] (pre-treatment of verapamil 50 mg/kg, read-out: Tmax), the Tmax came to 1.17 ± 0.516 h. For the same molecule, in data set [1] (without verapamil, read-out: time to peak plasma concentration (converted)), the Tmax was about 0.25 h.

One may read the AUC(0-inf) as the area under the concentration-time curve extrapolated to infinity. The term CL/F denotes clearance divided by bioavailability, as obtained after extravascular dosing. As a reminder, the Cmax is the peak of the concentration-time curve. What is called Vd/F is the apparent distribution volume after extravascular dosing. A word on the half-life: it is the time needed for the level to fall by half in the phase considered.
